In a melting point compilation (Tetko et al.; mined from patent text by program, amines drawn as free bases though some values may be those of a salt):

First: Cc1cccc(-c2nc(N)sc2-c2ccnc(-c3ccc(OCc4cn(C)cn4)cc3)c2)n1
Second: COc1cccc(-c2nc(-c3ccccc3)c3ncc(-c4cccc5ccccc45)cc3n2)c1
The melting point of the first is higher: 226 to 228 °C for the first, 166 to 167 °C for the second.

Compared with `Cc1ccc(S(=O)(=O)N(C)c2ccc(Cl)cc2CO)cc1`, `Cc1cc(-c2ccc(Cl)cc2)nn2c(C)nnc12` is higher in melting point: 130 to 132 °C for the first, 209 to 212 °C for the second.

Compared with `O=S1CCN(c2nc(Cl)nc3c(Cl)ncnc23)CC1`, `Cc1cc(N2CC=C(C(N)=O)CC2)c2cccc(-c3ccc(Cl)cc3Cl)c2n1` is higher in melting point: 195 to 198 °C for the first, 264 to 266 °C for the second.

Compared with `CNc1cc(CC(C)C)ccc1-c1ccccc1S(=O)(=O)Nc1onc(C)c1C`, `CCN(C(=O)C(NS(=O)(=O)c1c(C)cc(C)cc1C)C(C)C)c1ccccc1` (stereo not drawn) is higher in melting point: 125 to 128 °C for the first, 156 to 158 °C for the second.

First: CCCCc1nc2c(N)nc3ccccc3c2n1CCCCCCCCNS(=O)(=O)c1ccccc1
Second: CCCc1nc2c(N)nc3cc(OCCOCCNS(C)(=O)=O)ccc3c2s1
The melting point of the first is higher: 143 to 144 °C for the first, 134 to 137 °C for the second.

First: O=C1C2CCCCC2C(=O)N1c1cc(C(F)(F)F)cc(C(F)(F)F)c1 (stereo not drawn)
Second: O=[N+]([O-])c1cc(C(F)(F)F)cc2nc(N3CCN(c4ncccc4C(F)(F)F)CC3)[nH]c12
The melting point of the first is lower: 85 to 87 °C for the first, 192 °C for the second.

First: O=c1c(Br)c(CCC2CC2)nc2ccccn12
Second: CCc1nc(C2CC2)c(C(=O)O)n1Cc1ccc2oc(-c3ccccc3-c3nnn[nH]3)c(Br)c2c1
The melting point of the first is lower: 162 to 164 °C for the first, 198 °C for the second.

Compared with `CCCn1nnn(-c2cc(OCC#CI)c(Cl)cc2Cl)c1=O`, `CN(C)c1cc(Cl)c(C=O)c(Cl)c1` is higher in melting point: 134 to 138 °C for the first, 169 to 171 °C for the second.

First: N#Cc1cc(-c2cccnc2)nn1-c1ccc(NC(=O)c2ccc(OCCCC3OCCO3)nc2)cc1
Second: N#CCCNC(=O)c1ccnc(-c2cccc3nn(Cc4cccc(C(F)(F)F)c4)cc23)c1
The melting point of the first is higher: 197 to 198 °C for the first, 147 to 148 °C for the second.

First: CCNc1ccc(Cl)cc1[N+](=O)[O-]
Second: Cc1nc(-c2ccc(Cl)cc2)n[nH]1
The melting point of the first is lower: 90 to 91 °C for the first, 173 to 175 °C for the second.

First: CN1CC(C(Oc2ccccc2N)c2ccccc2)OCC1=O (stereo not drawn)
Second: CC1(C)C(=O)Nc2ccccc2C1(O)c1ccccc1 (stereo not drawn)
The melting point of the first is lower: 167 to 170 °C for the first, 185 to 187 °C for the second.

First: CCOC(=O)c1cn(C)c2cc(OC)ccc2c1=O
Second: CCOC(=O)CCc1ccc(OCc2nc(-c3ccco3)oc2C)c(OC)c1
The melting point of the first is higher: 198 to 200 °C for the first, 88 to 89 °C for the second.

First: COc1cc(OCCOc2ccccc2)c2c(=O)[nH]c(-c3cc(C)nc(C)c3)nc2c1
Second: COc1cc(C(=O)O)ccc1OCCCCCOc1nc2ccccc2s1
The melting point of the first is higher: 172 to 173 °C for the first, 130 to 131 °C for the second.

First: O=C1Nc2cc(F)ccc2C1c1ncnc2c1cnn2C1CCCCC1 (stereo not drawn)
Second: Nc1cncc(NC(=S)NC2CCCCC2)c1
The melting point of the first is higher: 277 to 280 °C for the first, 114 to 116 °C for the second.

First: COC(=O)C1=C(C)N=C(OC)N(C(=O)Oc2ccc([N+](=O)[O-])cc2)C1c1ccc(F)c(F)c1 (stereo not drawn)
Second: OC(COc1ccc(F)c(F)c1)CN1CCC(NCc2nc3ccccc3s2)CC1 (single isomer, unassigned; (+))
The melting point of the first is higher: 172 to 174 °C for the first, 65.8 °C for the second.

Compared with `CCCCCCCCN1C(=O)NC2(CC(C)(CC)N(CCOC(=O)c3ccccc3)C(C)(CC)C2C)C1=O` (stereo not drawn), `O=C(O)C(=O)c1ccc(OCCCCCOc2ccccc2)cc1` is lower in melting point: 123 to 124 °C for the first, 69 to 70 °C for the second.

First: CNC(=O)C[C@@H](NC(=O)OCc1ccccc1)C(C)C
Second: NCc1ccccc1CC(=O)O
The melting point of the first is higher: 190 to 191 °C for the first, 151 to 155 °C for the second.

Compared with `Cn1c(-c2ccccc2)c(C=O)c2ccc(Cl)cc2c1=O`, `O=c1c2ccc(Cl)cc2[nH]n1-c1ccccc1F` is higher in melting point: 172 to 173 °C for the first, 205 to 215 °C for the second.

First: CCOC(=O)c1ncn2c1[C@@H]1CCN1C(=O)c1c-2ccc(F)c1Cl
Second: COc1ccc(COC(=O)c2ncn3c2[C@@H]2CCCN2C(=O)c2c(Cl)cccc2-3)cc1
The melting point of the first is lower: 161 to 163 °C for the first, 185 to 186 °C for the second.

Compared with `Cc1nc2c(s1)CC(=O)CC2`, `Cc1nnc(NCc2ccccc2)s1` is higher in melting point: 95 to 96 °C for the first, 140 °C for the second.

Compared with `FC(F)(F)c1nnc2nc(-c3ccccc3)c3cc(Cl)ccc3n12`, `C[C@@H](c1ccc(-c2[nH]nnc2Cl)cc1)[C@](O)(Cn1cncn1)c1ccc(F)cc1F` is lower in melting point: 241 to 242 °C for the first, 113 to 115 °C for the second.

Compared with `CC(C)(C)C1OC1C(O)c1ccc(C(F)(F)F)cc1` (stereo not drawn), `Cc1ccc(NC(=O)C(F)(F)F)cc1C(F)(F)F` is lower in melting point: 74 to 75 °C for the first, 72 to 74 °C for the second.

First: c1ccc2cc(OC3CCC4(CCNCC4)CC3)ccc2c1
Second: c1ccc(CNCCOc2ccc3ccccc3c2)cc1
The melting point of the first is higher: 132 to 134 °C for the first, 94 °C for the second.

First: O=C(Oc1ccccc1)N1C=CC(c2c(-c3ccc(F)cc3)nc3n2CCS3)C=C1
Second: CC1CCN(C(=O)Oc2ccc(Oc3ccccc3)cc2F)CC1
The melting point of the first is higher: 164 to 166 °C for the first, 43 to 46 °C for the second.

First: OCc1ncc2n1CCC2
Second: Nc1ccc(S(=O)(=O)c2ccnc(N3CCCC3)c2)cc1
The melting point of the first is lower: 110 to 120 °C for the first, 186 to 187 °C for the second.

First: C#CCn1c2ccccc2c2cc(Br)ccc21
Second: O=S1(=O)c2ccccc2Oc2cc(F)ccc21
The melting point of the first is lower: 142 to 149 °C for the first, 174 to 176 °C for the second.

First: COC1=CC(=O)C(O)=C(CCCCCCC/C=C\CCCCCCCC2=C(O)C(=O)C(C)=C(OC)C2=O)C1=O
Second: CCCCCCCCCCCCCCCCN[C@H](C(=O)N[C@H](C(=O)O)C(C)C)C(C)C
The melting point of the first is lower: 88 to 90 °C for the first, 120 to 123 °C for the second.

First: CN1C(c2ccc(F)cc2)=NC(C(F)(F)F)(C(F)(F)F)C1NC(=O)c1ccc(N2CCCCC2)cc1 (stereo not drawn)
Second: CN1CCC(c2c[nH]c3ccc(NC(=O)c4cccc(Cl)c4)nc23)CC1
The melting point of the first is higher: 128 to 129 °C for the first, 110 to 111 °C for the second.

First: COc1ccc2c(Cl)cc(-c3ccc(Cl)c(Cl)c3)nc2c1
Second: S=C(NCCN(Cc1ccc(Cl)c(Cl)c1)c1ccc(Br)cn1)Nc1ccc2nn[nH]c2c1
The melting point of the first is lower: 122 to 131 °C for the first, 190 to 192 °C for the second.

Compared with `O=C1C=C(N2CCCCC2)c2oc3ccccc3c2C1=O`, `Cc1ccccc1-n1cc(C#N)c(=O)[nH]c1=O` is higher in melting point: 151 to 156 °C for the first, 252 °C for the second.

First: COc1ccc(-c2c(Cl)c(CN3C(=O)CCC3=O)nc3sc4c(c23)CCC(C(=O)N2CCOCC2)C4)cc1 (stereo not drawn)
Second: CNS(=O)(=O)c1ccccc1Nc1nc(Nc2ccc3c(c2)CCCC(=O)N3CC(=O)OC)ncc1Cl
The melting point of the first is lower: 170 to 171 °C for the first, 237 to 239 °C for the second.

First: ClCc1ccc(CN=C(Nc2ccccc2-c2ccccc2)Nc2ccccc2-c2ccccc2)cc1
Second: O=C(Nc1ccccn1)[C@H](Cc1ccccc1)C[C@@H](Cc1ccccc1)C(=O)N[C@@H](CSCc1ccccc1)C(=O)O
The melting point of the first is higher: 87 to 91.5 °C for the first, 75 to 80 °C for the second.

First: C=C1CC2C3CCC4=CC(=O)CCC4(C)C3=CCC2(C)C1(O)C(C)=O (stereo not drawn)
Second: CC12CCC(=O)C=C1CCC1C2=CCC2(C)C(=C=C(Cl)S(=O)c3ccccc3)CCC12 (stereo not drawn)
The melting point of the first is lower: 147 to 162 °C for the first, 210 to 213 °C for the second.

Compared with `COCC(=O)OC[C@@H]1CC(c2ccc(-c3ccc(N4C[C@H](Cn5ccnn5)OC4=O)cc3F)cn2)=NO1`, `COc1cc(CN2C(=N)c3cc(-c4ccc(F)cc4F)ccc3S2(=O)=O)ccn1` is higher in melting point: 170 °C for the first, 173 °C for the second.

Compared with `COc1ccc(C(=O)Nc2c(Cl)cncc2Cl)c2cc(C(=O)N3CCN(C)CC3)oc12`, `CCN(C(=O)OC)c1c(C(=O)c2cnoc2C2CC2)ccc(Cl)c1Cl` is lower in melting point: 224 to 225 °C for the first, 76 to 78 °C for the second.

First: CC(=O)Nc1ccc2c(c1)[C@@H](O)[C@H](Br)C(C)(C)O2 (relative stereo)
Second: CC(=O)Nc1ccc2cnn(-c3ccnc(N[C@H]4CC[C@H](O)CC4)n3)c2c1
The melting point of the first is lower: 170 °C for the first, 288 to 290 °C for the second.

Compared with `COCC(=O)Nc1ccc(-c2ccncc2)cc1`, `O=C(CCS)Nc1ccc(Nc2ccccc2)cc1` is lower in melting point: 177 to 178 °C for the first, 98.3 to 99.5 °C for the second.

Compared with `O/N=C(/c1ccc(Cl)cc1)C1CC1`, `CCCCC[C@H](O)c1ccc(Br)cc1` is lower in melting point: 101 to 103 °C for the first, 70 to 71 °C for the second.

First: NC(=O)N1CCC(OCCN2CCCCC2)C1 (stereo not drawn)
Second: CCOC(=O)C1C2C1S(=O)(=O)CC2(N)C(=O)OCC (stereo not drawn)
The melting point of the first is higher: 134 to 136 °C for the first, 80 to 83 °C for the second.

First: CCCCc1nn(-c2cc([N+](=O)[O-])ccc2Cl)c(=O)n1Cc1ccc(-c2ccccc2S(=O)(=O)NC(C)(C)C)cc1F
Second: CN1CCn2c(-c3ccc(F)c(-c4ccc(F)cc4C#N)c3)cnc2C1=O
The melting point of the first is lower: 124 to 126 °C for the first, 224 °C for the second.

First: O=S(=O)(c1ccc(F)cc1)c1cncc(OC2SCC(O)C(O)C2O)c1 (stereo not drawn)
Second: CC(=O)OC1CSC(Oc2cncc(-c3ccncc3)c2)C(OC(C)=O)C1OC(C)=O (stereo not drawn)
The melting point of the first is lower: 93 to 96 °C for the first, 138 °C for the second.

First: C=CCCC(C#N)(C#N)Cc1ccc(OC(C)=O)cc1
Second: CC(C)(O)c1ccc(CNC(=O)c2cccnc2Oc2ccc3c(c2)OCO3)cc1
The melting point of the first is lower: 80.2 °C for the first, 118 to 120 °C for the second.

First: CC1(C)C(=O)Nc2cc3[nH]c(-c4cncnc4)nc3cc21
Second: Cc1cc2c(cc1C)C1(CO2)C(=O)N(Cc2ccccn2)c2ccccc21 (stereo not drawn)
The melting point of the first is higher: 310 to 312 °C for the first, 165 to 168 °C for the second.

Compared with `COc1cc(S)c(C(C)=O)c(OC)c1`, `COc1ccc(S(N)(=O)=O)cc1C(=O)C(C)N=[N+]=[N-]` (stereo not drawn) is higher in melting point: 57 to 59 °C for the first, 113 to 114 °C for the second.

Going from `NC(=O)Cc1cnc(Nc2n[nH]c3ccc(-c4ncccc4Cl)cc23)s1` to `Cc1cc2c(NCCc3cccc(C(F)(F)F)c3)ncnc2o1`, the melting point falls from over 230 °C to 119 °C.

First: CC(=O)Nc1nc(CCc2ccc(C(=O)NC(=N)N)cc2)c(Cc2ccc(S(C)(=O)=O)cc2)s1
Second: N#CCOc1ccc(CN2C(=O)c3cccc(NC(=O)c4ccc(Cl)s4)c3C2=O)cc1
The melting point of the first is lower: 108 to 110 °C for the first, 199 °C for the second.

Compared with `CC12CCC(C(=Cc3ccc(COc4ccccc4C(=O)O)cc3)C1=O)C2(C)C` (stereo not drawn), `COc1ccc(-c2c(C)c(NC(=O)CC(C)(C)C)c(C)c3c2OCC3c2ccc(C(C)C)cc2)cn1` (stereo not drawn) is lower in melting point: 128 °C for the first, 120 to 123 °C for the second.

Compared with `CCC1Cc2ccc(C)cc2C1=O` (stereo not drawn), `CC(C)OC(=O)c1cc(-n2c(=O)[nH]c3c(c2=O)CCC3)c(F)cc1Br` is higher in melting point: 50 to 52 °C for the first, 214 to 216 °C for the second.

Compared with `CCC(Cc1c(C)cc(C(C)(C)C)c(O)c1C)(C(=O)OC1CC(C)(C)NC(C)(C)C1)C(=O)OC1CC(C)(C)NC(C)(C)C1`, `O=[N+]([O-])c1cncnc1O` is higher in melting point: 175 °C for the first, 300 °C for the second.
